Experimental data: the NIST ThermoML archive (doi:10.1016/j.fluid.2011.06.001)
± gives the expanded uncertainty stated by the source. One block for each molecule: values may come before it.

Assays:
[1] = Liquid, Closed cell (Static) method
[2] = excess molar enthalpy (molar enthalpy of mixing); xn = mol fraction of the nth substance listed; conditions: 298.15 K, 101 kPa, Liquid, Flow calorimetry

vapor or sublimation pressure ([1]; 288.15 K): 13 ± 0.034 kPa | vapor or sublimation pressure ([1]; 298.15 K): 20.35 ± 0.048 kPa | vapor or sublimation pressure ([1]; 308.15 K): 30.45 ± 0.066 kPa
SMILES: CC(C)CCl [1-chloro-2-methylpropane]

vapor or sublimation pressure ([1]; 288.15 K): 26.42 ± 0.062 kPa | vapor or sublimation pressure ([1]; 298.15 K): 40.13 ± 0.087 kPa | vapor or sublimation pressure ([1]; 308.15 K): 59.52 ± 0.12 kPa
SMILES: CC(C)(C)Cl [2-chloro-2-methylpropane]

excess molar enthalpy ([2]; x1 = 0.1093): 0.00108 ± 0.000191 kcal/mol | excess molar enthalpy ([2]; x1 = 0.2192): 0.00167 ± 0.000191 kcal/mol | excess molar enthalpy ([2]; x1 = 0.3295): 0.00191 ± 0.000191 kcal/mol | excess molar enthalpy ([2]; x1 = 0.4402): 0.00196 ± 0.000191 kcal/mol | excess molar enthalpy ([2]; x1 = 0.5512): 0.0017 ± 0.000191 kcal/mol | excess molar enthalpy ([2]; x1 = 0.6628): 0.00127 ± 0.000191 kcal/mol | excess molar enthalpy ([2]; x1 = 0.7747): 0.000837 ± 0.000191 kcal/mol | excess molar enthalpy ([2]; x1 = 0.8872): 0.000311 ± 0.000191 kcal/mol
SMILES: CC(C)(C)Cl [2-chloro-2-methylpropane] + CC(C)OC(C)C

vapor or sublimation pressure ([1]; 288.15 K): 12.65 ± 0.034 kPa | vapor or sublimation pressure ([1]; 298.15 K): 20 ± 0.047 kPa | vapor or sublimation pressure ([1]; 308.15 K): 30.46 ± 0.066 kPa
SMILES: CC(C)OC(C)C [diisopropyl ether]

excess molar enthalpy ([2]; x1 = 0.0907): -0.00722 ± 0.000263 kcal/mol | excess molar enthalpy ([2]; x1 = 0.1815): -0.0129 ± 0.000359 kcal/mol | excess molar enthalpy ([2]; x1 = 0.2726): -0.0175 ± 0.000454 kcal/mol | excess molar enthalpy ([2]; x1 = 0.3634): -0.0206 ± 0.000526 kcal/mol | excess molar enthalpy ([2]; x1 = 0.4544): -0.0227 ± 0.00055 kcal/mol | excess molar enthalpy ([2]; x1 = 0.5453): -0.0229 ± 0.000574 kcal/mol | excess molar enthalpy ([2]; x1 = 0.6361): -0.0219 ± 0.00055 kcal/mol | excess molar enthalpy ([2]; x1 = 0.727): -0.0189 ± 0.000478 kcal/mol | excess molar enthalpy ([2]; x1 = 0.8179): -0.0147 ± 0.000406 kcal/mol | excess molar enthalpy ([2]; x1 = 0.909): -0.00822 ± 0.000287 kcal/mol
SMILES: CC(C)CCl [1-chloro-2-methylpropane] + CC(C)OC(C)C

Continued, molecule first:

SMILES: CCCCCl [1-chlorobutane]
vapor or sublimation pressure ([1]; 288.15 K): 8.4 ± 0.025 kPa | vapor or sublimation pressure ([1]; 298.15 K): 13.52 ± 0.034 kPa | vapor or sublimation pressure ([1]; 308.15 K): 21.04 ± 0.048 kPa

SMILES: CCC(C)Cl (stereo not drawn) [2-chlorobutane]
vapor or sublimation pressure ([1]; 288.15 K): 13.36 ± 0.035 kPa | vapor or sublimation pressure ([1]; 298.15 K): 20.91 ± 0.049 kPa | vapor or sublimation pressure ([1]; 308.15 K): 31.55 ± 0.068 kPa

SMILES: CCC(C)Cl (stereo not drawn) [2-chlorobutane] + CC(C)OC(C)C
excess molar enthalpy ([2]; x1 = 0.0909): -0.00368 ± 0.000215 kcal/mol | excess molar enthalpy ([2]; x1 = 0.1819): -0.00717 ± 0.000263 kcal/mol | excess molar enthalpy ([2]; x1 = 0.2726): -0.0104 ± 0.000311 kcal/mol | excess molar enthalpy ([2]; x1 = 0.3636): -0.0125 ± 0.000359 kcal/mol | excess molar enthalpy ([2]; x1 = 0.4546): -0.0137 ± 0.000382 kcal/mol | excess molar enthalpy ([2]; x1 = 0.5454): -0.0144 ± 0.000406 kcal/mol | excess molar enthalpy ([2]; x1 = 0.6365): -0.0143 ± 0.000406 kcal/mol | excess molar enthalpy ([2]; x1 = 0.7273): -0.0127 ± 0.000359 kcal/mol | excess molar enthalpy ([2]; x1 = 0.8182): -0.00985 ± 0.000311 kcal/mol | excess molar enthalpy ([2]; x1 = 0.9092): -0.006 ± 0.000239 kcal/mol

SMILES: CCCCCl [1-chlorobutane] + CC(C)OC(C)C
excess molar enthalpy ([2]; x1 = 0.0908): -0.00684 ± 0.000263 kcal/mol | excess molar enthalpy ([2]; x1 = 0.1817): -0.0131 ± 0.000382 kcal/mol | excess molar enthalpy ([2]; x1 = 0.2726): -0.0175 ± 0.000454 kcal/mol | excess molar enthalpy ([2]; x1 = 0.3636): -0.0209 ± 0.000526 kcal/mol | excess molar enthalpy ([2]; x1 = 0.4545): -0.0228 ± 0.000574 kcal/mol | excess molar enthalpy ([2]; x1 = 0.5453): -0.0228 ± 0.000574 kcal/mol | excess molar enthalpy ([2]; x1 = 0.6363): -0.0216 ± 0.00055 kcal/mol | excess molar enthalpy ([2]; x1 = 0.7273): -0.0188 ± 0.000478 kcal/mol | excess molar enthalpy ([2]; x1 = 0.818): -0.014 ± 0.000382 kcal/mol | excess molar enthalpy ([2]; x1 = 0.909): -0.00774 ± 0.000263 kcal/mol
